Structures are written as SMILES.

Assay [1] in a line: Enhancement of the sweet impression of sucrose-containing yoghurt, rated 1-10 by a group of experts. The settings on record: 200 ppm in yoghurt (0.5% fat content), sucrose 5%. It counts as in vivo. On the procedure:
In order to quantify the enhancement of a sweet impression by addition of the propenylphenyl glycosides to be used according to the invention, the sweetness of sucrose-containing yoghurt (0.5% fat content) and of samples containing the same amount of sucrose and in addition a specific concentration of the propenylphenyl glycosides of formula (I) to be used according to the invention was determined by a group of experts (rating 1 [extremely slightly sweet] to 10 [extremely sweet]). Evaluation was carried out by calculating the enhancement (in %) of the sweetness impression from the average values of the assessments of the yoghurts containing sucrose (a) or sucrose and propenylphenyl glycoside (b).

A short description of assay [2]: Low-fat yoghurts with reduced sugar, sensory duo test with 16 panellists. The assay is classed as in vivo. The conditions noted are these: yoghurt 0.1% fat, 8% versus 10% sucrose; compound 1 0.015%, hesperetin 0.01%. On the procedure:
Comparison preparation with sugar (A) Comparison preparation with reduced sugar content […] Preparations according to the invention with reduced sugar content and compound 1 (C) Comparison preparation with reduced sugar content and hesperetin (D)
The ingredients were mixed and cooled at 5° C.

For `C=CCc1ccc(O[C@@H]2O[C@H](CO)[C@@H](O)[C@H](O)[C@H]2O)cc1` [compound 1, 1-O-[4-(propen-2-enyl)phenyl]-D-glucopyranoside], the “% Enhancement of the sweetness impression” value in assay [1] ((16/10), p < 0.05) is recorded as “+24%”. Besides, the “Sweetness impression (1-10) b) with” value in assay [1] (rating 1 extremely slightly sweet to 10 extremely sweet) came out at 4.9 ± 1.4.

`COc1ccc(C2CC(=O)c3c(O)cc(O)cc3O2)cc1O` (stereo not drawn) [hesperetin, reference compound]: in assay [2], the “Compensation of the loss of sweetness as a result of sugar reduction” value is “less good results”.

These data come from patent US20080220140A1, “USE OF PROPENYLPHENYL GLYCOSIDES FOR ENHANCING SWEET SENSORY IMPRESSIONS” (SYMRISE GmbH & Co. KG, priority 2007, published 2008).
